Values after ≈ are worked out from the molar mass of the structure shown.
Assays:
Type in all cases: cell-based
[1] = system: E. coli DH5α; test: E. coli DXR MIC experiment, parent strain; details: Escherichia coli, LB, overnight at 37° C., read-out: E. coli DXR MICs, E. coli DH5α
Method: (§1) The MIC protocol used techniques well known to those skilled in the art. All strains were grown overnight in LB with appropriate selection. The compounds are mixed or put in contact with DMSO. Fifty μl of LB was placed in each well of the microtiter plate, except in Column 1. To obtain a top concentration of 256 μl/mil of compound after the inoculum is added: 10 μl of a 5.12 mg/ml stock is mixed with 90 μl of LB. This mixture was placed in the first well of its assigned row of a 96-well plate. The compound was then serially diluted 1:2 by taking 50 μl from the first well in the row and mixing it with the second well of the same row, Column 2. Then, 50 μl from that well was mixed with the third well in the row, Column 3 and so on until Column 11. Fifty μl of the serial dilution from Column 11 was discarded. The final well in the row, column 12, was the growth control. No compound was placed in column 12. The overnight culture was diluted 1:50 into LB. Fifty μl of this culture dilution was added to every well of the microtiter plate. This dilutes the inoculum and drug 1:2. The final inoculum was approximately 1×10^5 cells/ml. The 96-well pates are then incubated overnight at 37° C.

[2] = system: E. coli DH5α + (pET28); test: E. coli DXR MIC experiment, empty vector strain; details: Escherichia coli, LB, overnight at 37° C., read-out: E. coli DXR MICs, E. coli DH5α + (pET28)
Method: as §1

[3] = system: E. coli DH5α + (pET28::dxr), H. influenzae dxr; test: H. influenzae DXR MIC experiment, strain expressing H. influenzae DXR
Method: as §1, with “Fifty μl of LB was placed in each well of the microtiter plate, except in Column 1. To obtain a top concentration of 256 μl/mil of compound after the inoculum is added: 10 μl of a 5.12 mg/ml stock is mixed with 90 μl of LB.” left out, “The overnight culture was diluted 1:50 into LB.” left out

[4] = system: E. coli DH5α + (pET28::dxr), E. coli dxr; test: E. coli DXR MIC experiment, strain overexpressing E. coli DXR
Method: as §1

Structure (SMILES)	MIC [1] [µg/mL]	MIC [2] [µg/mL]	MIC increase for cells expressing H. influenzae DXR ([3]; E. coli cells (DH5α) expressing H. influenzae DXR) [fold]	MIC ([3]; Escherichia coli, read-out: H. influenzae DXR MICs, E. coli DH5α + (pET28::dxr)) [µg/mL]	MIC increase for cells overexpressing E. coli DXR ([4]; E. coli cells (DH5α) overexpressing E. coli DXR) [fold]	MIC ([4]; Escherichia coli, read-out: E. coli DXR MICs, E. coli DH5α + (pET28::dxr)) [µg/mL]
CC1(C)S[C@@H]2[C@H](NC(=O)[C@H](N)c3ccc(O)cc3)C(=O)N2[C@H]1C(=O)O [Amoxicillin]	16 (≈ 43.8 µM)					
O=CN(O)CCCP(=O)(O)O [Fosmidomycin]	16 (≈ 87.4 µM)	16	16	256	8	128
